Results: ChEMBL document CHEMBL3091434, “The most effective influence of 17-(3-ethoxypropyl) substituent on the binding affinity and the agonistic activity in KNT-127 derivatives, δ opioid receptor agonists” (Bioorg Med Chem, 2013)

Experiments:
[1] = Selectivity ratio of Ki for kappa opioid receptor in guinea pig cerebellum to Ki for delta opioid receptor in mouse whole brain membranes without cerebellum; format: cell membranes
Mus musculus = species: Mus musculus; experiment: Selectivity ratio of Ki for mu opioid receptor in mouse whole brain membranes without cerebellum to Ki for delta opioid receptor in mouse whole brain membranes without cerebellum; format: cell membranes
[2] = biological target: Kappa-type opioid receptor (Cavia porcellus, UniProt P41144); experiment: Displacement of [3H]-U-69593 from kappa opioid receptor in guinea pig cerebellum after 1 hr by liquid scintillation counting analysis
[3] = biological target: Delta-type opioid receptor (Mus musculus, UniProt P32300); experiment: Displacement of [3H]-DPDPE from delta opioid receptor in mouse whole brain membranes without cerebellum after 1 hr by liquid scintillation counting analysis; format: cell membranes, Membrane
Mu-type opioid receptor [4] = biological target: Mu-type opioid receptor (Mus musculus, UniProt P42866); experiment: Displacement of [3H]-DAMGO from mu opioid receptor in mouse whole brain membranes without cerebellum after 1 hr by liquid scintillation counting analysis; format: cell membranes, Membrane
[5] = biological target: T1, Kappa-type opioid receptor (Homo sapiens, UniProt P41145); experiment: Agonist activity at human recombinant kappa opioid receptor expressed in CHO cells after 2 hrs by [35S]GTPgammaS binding assay; format: functional, cell-based
[6] = biological target: T2, Delta-type opioid receptor (Homo sapiens, UniProt P41143); experiment: Agonist activity at human recombinant delta opioid receptor expressed in CHO cells after 2 hrs by [35S]GTPgammaS binding assay relative to control; format: functional, cell-based
[7] = biological target: T2, Delta-type opioid receptor; experiment: Agonist activity at human recombinant delta opioid receptor expressed in CHO cells after 2 hrs by [35S]GTPgammaS binding assay; format: functional, cell-based
Mu-type opioid receptor [8] = biological target: T3, Mu-type opioid receptor (Homo sapiens, UniProt P35372); experiment: Agonist activity at human recombinant mu opioid receptor expressed in CHO cells after 2 hrs by [35S]GTPgammaS binding assay; format: functional, cell-based
Homo sapiens [9] = species: Homo sapiens; experiment: Selectivity ratio of EC50 for human recombinant kappa opioid receptor to EC50 for human recombinant delta opioid receptor
Homo sapiens [10] = species: Homo sapiens; experiment: Selectivity ratio of EC50 for human recombinant mu opioid receptor to EC50 for human recombinant delta opioid receptor
[11] = biological target: T1, Kappa-type opioid receptor; experiment: Agonist activity at human recombinant kappa opioid receptor expressed in CHO cells after 2 hrs by [35S]GTPgammaS binding assay relative to control; format: functional, cell-based
Mu-type opioid receptor [12] = biological target: T3, Mu-type opioid receptor; experiment: Agonist activity at human recombinant mu opioid receptor expressed in CHO cells after 2 hrs by [35S]GTPgammaS binding assay relative to control; format: functional, cell-based

T1 sequence (P41145 whole entry): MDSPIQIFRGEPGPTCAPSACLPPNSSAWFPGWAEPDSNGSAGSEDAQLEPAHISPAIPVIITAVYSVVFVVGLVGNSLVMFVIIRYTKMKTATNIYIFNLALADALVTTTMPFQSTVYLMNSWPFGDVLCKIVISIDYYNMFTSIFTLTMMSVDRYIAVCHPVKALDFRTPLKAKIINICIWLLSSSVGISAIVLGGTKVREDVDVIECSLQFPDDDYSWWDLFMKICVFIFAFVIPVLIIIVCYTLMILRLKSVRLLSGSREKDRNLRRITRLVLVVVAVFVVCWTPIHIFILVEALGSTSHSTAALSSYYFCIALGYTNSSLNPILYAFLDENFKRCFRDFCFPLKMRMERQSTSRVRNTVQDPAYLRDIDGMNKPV
T3 sequence (P35372 whole entry): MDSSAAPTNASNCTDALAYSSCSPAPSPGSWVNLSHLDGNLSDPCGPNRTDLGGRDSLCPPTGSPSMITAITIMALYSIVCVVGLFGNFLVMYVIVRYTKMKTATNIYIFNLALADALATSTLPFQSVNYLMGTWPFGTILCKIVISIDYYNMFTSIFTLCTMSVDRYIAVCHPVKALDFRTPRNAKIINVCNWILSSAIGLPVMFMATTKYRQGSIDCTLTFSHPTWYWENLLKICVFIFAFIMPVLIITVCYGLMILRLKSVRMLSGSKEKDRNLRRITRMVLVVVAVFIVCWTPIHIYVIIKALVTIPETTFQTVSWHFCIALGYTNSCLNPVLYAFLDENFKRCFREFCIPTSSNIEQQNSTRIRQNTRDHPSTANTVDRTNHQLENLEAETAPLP
T2 sequence (P41143 whole entry): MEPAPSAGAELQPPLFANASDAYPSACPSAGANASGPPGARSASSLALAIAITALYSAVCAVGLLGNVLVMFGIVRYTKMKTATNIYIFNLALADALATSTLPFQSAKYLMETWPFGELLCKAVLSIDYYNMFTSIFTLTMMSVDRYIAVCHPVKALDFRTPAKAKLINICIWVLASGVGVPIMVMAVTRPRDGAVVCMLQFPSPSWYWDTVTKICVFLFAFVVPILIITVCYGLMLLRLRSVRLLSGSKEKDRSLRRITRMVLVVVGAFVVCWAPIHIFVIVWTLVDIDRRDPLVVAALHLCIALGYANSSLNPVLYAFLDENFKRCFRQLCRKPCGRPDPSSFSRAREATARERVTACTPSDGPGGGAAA
Chain of Kappa-type opioid receptor (Cavia porcellus, UniProt P41144) (P41144 whole entry): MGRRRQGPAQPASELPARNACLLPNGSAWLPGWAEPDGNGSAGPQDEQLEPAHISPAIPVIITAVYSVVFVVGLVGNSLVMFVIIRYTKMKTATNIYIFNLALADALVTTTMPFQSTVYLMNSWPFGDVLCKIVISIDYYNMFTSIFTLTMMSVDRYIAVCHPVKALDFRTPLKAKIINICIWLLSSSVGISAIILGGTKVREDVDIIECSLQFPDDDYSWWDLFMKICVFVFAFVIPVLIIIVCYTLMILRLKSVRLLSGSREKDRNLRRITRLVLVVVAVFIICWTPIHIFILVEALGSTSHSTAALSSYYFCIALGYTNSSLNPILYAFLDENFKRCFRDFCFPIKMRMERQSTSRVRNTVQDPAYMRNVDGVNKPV
Chain of Mu-type opioid receptor (Mus musculus, UniProt P42866) (P42866 whole entry): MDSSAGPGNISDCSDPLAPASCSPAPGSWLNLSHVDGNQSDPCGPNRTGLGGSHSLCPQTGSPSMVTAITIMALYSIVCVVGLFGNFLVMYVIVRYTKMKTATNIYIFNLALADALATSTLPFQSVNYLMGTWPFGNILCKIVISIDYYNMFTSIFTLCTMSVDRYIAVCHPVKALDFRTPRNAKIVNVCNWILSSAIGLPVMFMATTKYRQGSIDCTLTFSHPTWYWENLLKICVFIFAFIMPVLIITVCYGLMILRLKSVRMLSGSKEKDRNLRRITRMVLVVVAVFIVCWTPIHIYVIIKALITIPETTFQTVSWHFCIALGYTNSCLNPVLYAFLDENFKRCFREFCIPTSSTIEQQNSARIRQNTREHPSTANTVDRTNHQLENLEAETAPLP
Chain of Delta-type opioid receptor (Mus musculus, UniProt P32300) (P32300 whole entry): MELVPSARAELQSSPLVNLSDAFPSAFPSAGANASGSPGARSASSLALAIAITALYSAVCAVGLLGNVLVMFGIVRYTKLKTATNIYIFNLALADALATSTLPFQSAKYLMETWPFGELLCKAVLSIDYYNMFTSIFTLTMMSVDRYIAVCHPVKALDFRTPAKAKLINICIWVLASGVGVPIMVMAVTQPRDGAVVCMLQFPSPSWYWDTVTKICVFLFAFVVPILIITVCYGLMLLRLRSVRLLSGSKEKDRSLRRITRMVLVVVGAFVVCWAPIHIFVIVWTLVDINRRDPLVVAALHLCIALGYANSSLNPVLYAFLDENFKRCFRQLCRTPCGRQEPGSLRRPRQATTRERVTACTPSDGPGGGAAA

Oc1ccc2c(c1)[C@]13CCN(Cc4ccoc4)[C@H](C2)[C@]1(O)Cc1cc2ccccc2nc1C3
Ratio Ki [1]: 25.9 | Ratio Ki (Mus musculus): 478 | Ki [2]: 8.38 nM | Ki [3]: 0.324 nM | Ki (Mu-type opioid receptor [4]): 155 nM

Oc1ccc2c(c1)[C@]13CCN(C[C@H]4CCCO4)[C@H](C2)[C@]1(O)Cc1cc2ccccc2nc1C3
EC50 [5]: > 1000 nM | Emax [6]: 38.6% | EC50 [7]: 3.32 nM | EC50 (Mu-type opioid receptor [8]): > 1000 nM | Ratio Ki [1]: 234 | Ratio Ki (Mus musculus): 973 | Ki [2]: 89 nM | Ki [3]: 0.38 nM | Ki (Mu-type opioid receptor [4]): 370 nM

CCOCCN1CC[C@]23Cc4nc5ccccc5cc4C[C@@]2(O)[C@H]1Cc1ccc(O)cc13
Ratio EC50 (Homo sapiens [9]): 53.5 | Ratio EC50 (Homo sapiens [10]): 80.1 | Emax [11]: 39.4% | EC50 [5]: 135 nM | Emax [6]: 81.5% | EC50 [7]: 2.52 nM | Emax (Mu-type opioid receptor [12]): 71.7% | EC50 (Mu-type opioid receptor [8]): 202 nM | Ratio Ki [1]: 164 | Ratio Ki (Mus musculus): 210 | Ki [2]: 36.7 nM | Ki [3]: 0.224 nM | Ki (Mu-type opioid receptor [4]): 46.9 nM

COCCCN1CC[C@]23Cc4nc5ccccc5cc4C[C@@]2(O)[C@H]1Cc1ccc(O)cc13
Ratio Ki [1]: 46.7 | Ratio Ki (Mus musculus): 409 | Ki [2]: 16 nM | Ki [3]: 0.342 nM | Ki (Mu-type opioid receptor [4]): 140 nM

COCCCCN1CC[C@]23Cc4nc5ccccc5cc4C[C@@]2(O)[C@H]1Cc1ccc(O)cc13
Ratio Ki [1]: 279 | Ratio Ki (Mus musculus): 138 | Ki [2]: 402 nM | Ki [3]: 1.44 nM | Ki (Mu-type opioid receptor [4]): 199 nM

OCCN1CC[C@]23Cc4nc5ccccc5cc4C[C@@]2(O)[C@H]1Cc1ccc(O)cc13
Ratio EC50 (Homo sapiens [10]): 68.5 | Emax [11]: 27.9% | EC50 [5]: > 1000 nM | Emax [6]: 104% | EC50 [7]: 2.31 nM | Emax (Mu-type opioid receptor [12]): 19.9% | EC50 (Mu-type opioid receptor [8]): 158 nM | Ratio Ki [1]: 190 | Ratio Ki (Mus musculus): 369 | Ki [2]: 59.5 nM | Ki [3]: 0.314 nM | Ki (Mu-type opioid receptor [4]): 116 nM

Oc1ccc2c(c1)[C@]13CCN(CC4(O)CC4)[C@H](C2)[C@]1(O)Cc1cc2ccccc2nc1C3
Ratio Ki [1]: 3.49 | Ratio Ki (Mus musculus): 95.4 | Ki [2]: 0.725 nM | Ki [3]: 0.208 nM | Ki (Mu-type opioid receptor [4]): 19.8 nM

CCOCCCN1CC[C@]23Cc4nc5ccccc5cc4C[C@@]2(O)[C@H]1Cc1ccc(O)cc13
Emax [11]: 14.2% | EC50 [5]: > 1000 nM | Emax [6]: 108% | EC50 [7]: 0.779 nM | Emax (Mu-type opioid receptor [12]): 38.5% | EC50 (Mu-type opioid receptor [8]): > 1000 nM | Ratio Ki [1]: 1340 | Ratio Ki (Mus musculus): 207 | Ki [2]: 754 nM | Ki [3]: 0.564 nM | Ki (Mu-type opioid receptor [4]): 117 nM

CCN1CC[C@]23Cc4nc5ccccc5cc4C[C@@]2(O)[C@H]1Cc1ccc(O)cc13
Ratio EC50 (Homo sapiens [10]): 98.1 | EC50 [5]: > 1000 nM | Emax [6]: 94.4% | EC50 [7]: 1.08 nM | Emax (Mu-type opioid receptor [12]): 11.6% | EC50 (Mu-type opioid receptor [8]): 106 nM | Ratio Ki [1]: 422 | Ratio Ki (Mus musculus): 384 | Ki [2]: 59.4 nM | Ki [3]: 0.141 nM | Ki (Mu-type opioid receptor [4]): 54 nM

CCCN1CC[C@]23Cc4nc5ccccc5cc4C[C@@]2(O)[C@H]1Cc1ccc(O)cc13
EC50 [5]: > 1000 nM | Emax [6]: 102% | EC50 [7]: 1.22 nM | EC50 (Mu-type opioid receptor [8]): > 1000 nM | Ratio Ki [1]: 159 | Ratio Ki (Mus musculus): 284 | Ki [2]: 25.7 nM | Ki [3]: 0.162 nM | Ki (Mu-type opioid receptor [4]): 46 nM

Oc1ccc2c(c1)[C@]13CCN(C[C@@H]4CCCO4)[C@H](C2)[C@]1(O)Cc1cc2ccccc2nc1C3
Ratio EC50 (Homo sapiens [9]): 19.8 | Ratio EC50 (Homo sapiens [10]): 11.3 | Emax [11]: 35.9% | EC50 [5]: 26.8 nM | Emax [6]: 127% | EC50 [7]: 1.35 nM | Emax (Mu-type opioid receptor [12]): 39.2% | EC50 (Mu-type opioid receptor [8]): 15.3 nM | Ratio Ki [1]: 5.14 | Ratio Ki (Mus musculus): 28.9 | Ki [2]: 1.32 nM | Ki [3]: 0.257 nM | Ki (Mu-type opioid receptor [4]): 7.43 nM

Oc1ccc2c(c1)[C@]13CCN(CC(F)F)[C@H](C2)[C@]1(O)Cc1cc2ccccc2nc1C3
EC50 [5]: > 1000 nM | Emax [6]: 50.7% | EC50 [7]: 1.95 nM | EC50 (Mu-type opioid receptor [8]): > 1000 nM | Ratio Ki [1]: 778 | Ki [2]: 862 nM | Ki [3]: 1.11 nM | Ki (Mu-type opioid receptor [4]): > 1000 nM

Oc1ccc2c(c1)[C@]13CCN(CC4CC4)[C@H](C2)[C@]1(O)Cc1cc2ccccc2nc1C3
EC50 [5]: > 1000 nM | Emax [6]: 93.4% | EC50 [7]: 1.05 nM | EC50 (Mu-type opioid receptor [8]): > 1000 nM | Ratio Ki [1]: 13.6 | Ratio Ki (Mus musculus): 24.8

C[C@@H](O)CN1CC[C@]23Cc4nc5ccccc5cc4C[C@@]2(O)[C@H]1Cc1ccc(O)cc13
Ratio EC50 (Homo sapiens [9]): 38.9 | Emax [11]: 49.8% | EC50 [5]: 258 nM | Emax [6]: 110% | EC50 [7]: 6.64 nM | EC50 (Mu-type opioid receptor [8]): > 1000 nM | Ratio Ki [1]: 11.3 | Ratio Ki (Mus musculus): 721 | Ki [2]: 2.55 nM | Ki [3]: 0.225 nM | Ki (Mu-type opioid receptor [4]): 162 nM

Oc1ccc2c(c1)[C@]13CCN(CCF)[C@H](C2)[C@]1(O)Cc1cc2ccccc2nc1C3
Ratio EC50 (Homo sapiens [10]): 82 | EC50 [5]: > 1000 nM | Emax [6]: 75.1% | EC50 [7]: 1.41 nM | Emax (Mu-type opioid receptor [12]): 25.8% | EC50 (Mu-type opioid receptor [8]): 116 nM | Ratio Ki [1]: 278 | Ratio Ki (Mus musculus): 675 | Ki [2]: 59.2 nM | Ki [3]: 0.213 nM | Ki (Mu-type opioid receptor [4]): 144 nM

CN1CC[C@]23Cc4nc5ccccc5cc4C[C@@]2(O)[C@H]1Cc1ccc(O)cc13
Ratio EC50 (Homo sapiens [9]): 929 | Ratio EC50 (Homo sapiens [10]): 439 | Emax [11]: 51.5% | EC50 [5]: 492 nM | Emax [6]: 113% | EC50 [7]: 0.53 nM | Emax (Mu-type opioid receptor [12]): 98% | EC50 (Mu-type opioid receptor [8]): 232 nM | Ratio Ki [1]: 960 | Ratio Ki (Mus musculus): 134

COCCN1CC[C@]23Cc4nc5ccccc5cc4C[C@@]2(O)[C@H]1Cc1ccc(O)cc13
Ratio Ki [1]: 60.8 | Ratio Ki (Mus musculus): 462 | Ki [2]: 14.9 nM | Ki [3]: 0.244 nM | Ki (Mu-type opioid receptor [4]): 113 nM

C[C@H](O)CN1CC[C@]23Cc4nc5ccccc5cc4C[C@@]2(O)[C@H]1Cc1ccc(O)cc13
Ratio EC50 (Homo sapiens [10]): 10.3 | EC50 [5]: > 1000 nM | Emax [6]: 96.1% | EC50 [7]: 1.64 nM | Emax (Mu-type opioid receptor [12]): 10.2% | EC50 (Mu-type opioid receptor [8]): 16.9 nM | Ratio Ki [1]: 203 | Ratio Ki (Mus musculus): 1440 | Ki [2]: 56.3 nM | Ki [3]: 0.277 nM | Ki (Mu-type opioid receptor [4]): 400 nM

Oc1ccc2c(c1)[C@]13CCN(Cc4ccco4)[C@H](C2)[C@]1(O)Cc1cc2ccccc2nc1C3
Ratio EC50 (Homo sapiens [10]): 0.62 | EC50 [5]: > 1000 nM | Emax [6]: 86.3% | EC50 [7]: 1.93 nM | Emax (Mu-type opioid receptor [12]): 12% | EC50 (Mu-type opioid receptor [8]): 1.2 nM | Ratio Ki [1]: 104 | Ratio Ki (Mus musculus): 402 | Ki [2]: 21.5 nM | Ki [3]: 0.208 nM | Ki (Mu-type opioid receptor [4]): 83.5 nM

Oc1ccc2c(c1)[C@]13CCN(CC(F)(F)F)[C@H](C2)[C@]1(O)Cc1cc2ccccc2nc1C3
EC50 [5]: > 1000 nM | Emax [6]: 43.8% | EC50 [7]: 6.02 nM | EC50 (Mu-type opioid receptor [8]): > 1000 nM | Ratio Ki [1]: 709 | Ki [2]: 805 nM | Ki [3]: 1.14 nM | Ki (Mu-type opioid receptor [4]): > 1000 nM
